Publication PMC12302229, “Synergy of triazolyl substituents at C1 and C3 of galactose for high-affinity and selective galectin-4C inhibition” (RSC Chemical Biology, 2025)
Several values for one entry are separate records, joined by “and”; a condition that tells them apart may be missing. Equal entries are not always repeated. Where two headings read alike, the source gives them in different places.

Assays:
[1] = target: T1, galectin-4C (Homo sapiens, UniProt P56470); details: cited from earlier work
T1 construct: made in house; host or cells: E. coli BL-21 (DE3)
T1 sequence (P56470 185-323): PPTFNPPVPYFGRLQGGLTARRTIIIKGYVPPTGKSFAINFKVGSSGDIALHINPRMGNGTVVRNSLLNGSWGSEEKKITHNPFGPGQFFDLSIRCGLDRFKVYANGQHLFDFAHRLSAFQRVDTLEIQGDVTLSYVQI

[2] = target: T2, galectin-1 (Homo sapiens, UniProt P09382); details: cited from earlier work
T2 construct: made in house
T2 sequence (P09382 whole entry): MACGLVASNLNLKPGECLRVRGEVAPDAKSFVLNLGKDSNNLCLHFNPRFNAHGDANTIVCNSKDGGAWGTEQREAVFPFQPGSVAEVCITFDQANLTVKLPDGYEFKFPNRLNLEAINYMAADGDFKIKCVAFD

[3] = target: T3, galectin-3 (Homo sapiens, UniProt P17931); details: cited from earlier work
T3 construct: made in house
T3 sequence (P17931 whole entry): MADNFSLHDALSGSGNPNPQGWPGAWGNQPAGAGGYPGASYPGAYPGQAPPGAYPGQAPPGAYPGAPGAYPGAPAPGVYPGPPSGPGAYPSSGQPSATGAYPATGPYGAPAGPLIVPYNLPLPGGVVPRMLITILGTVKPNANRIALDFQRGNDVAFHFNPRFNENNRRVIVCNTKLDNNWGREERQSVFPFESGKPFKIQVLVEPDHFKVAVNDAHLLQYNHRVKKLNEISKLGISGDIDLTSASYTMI

[4] = target: T1, galectin-4C; test: competitive fluorescence polarization assay, galectin-4C; type: binding; details: for Kd: fluorescence polarization, x/y cells = only two data points revealed inhibition, both shown, > values estimated, no apparent binding at highest concentration, read-out: Dissociation constants, Galectin-4C
Protocol: Affinities of 1c–1z for galectin-1, -3, -4C, -4N, -7, -8C, -8N, -9C, and -9N were measured using an established fluorescence polarization assay[57] with reported probes and conditions.[19]
Recombinant human galectin-4 C-terminal carbohydrate recognition domain was expressed and purified as previously reported.[57,70] Briefly, BL-21 (DE3) E. coli cells containing galectin-4C (amino acid sequence 185–323) was expressed, lysed by sonication and purified by affinity chromatography on a lactosyl-Sepharose column. Galectin-4C protein was eluted using 50 mM β-lactose in PBS, pH 7.4. Galectin-4C was then further gel purified using a Superdex 200/60 column (GE Healthcare) previously equilibrated in PBS, pH 7.4. The peak fractions collected containing galectin-4C were pooled and concentrated to 6.5 mg mL^−1 using an AmiconUltra 3K molecular weight cut-off centrifugal concentrator (Millipore, Billerica, MA, USA) and used directly in crystallisation studies. […]
(§1) triazol-1-yl]-3’-(3,5-di-methoxybenzamido)-1,1’-sulfanediyl-di-β-D-galactopyranoside) concentration of 20 nM, respectively. Inhibitors were dissolved in dimethylsulfoxide (analytical grade) to a concentration of 20 mM, diluted with PBS to 3–6 different concentrations, and tested in duplicate twice for galectin affinity using a competitive fluorescence polarization assay as earlier described.3 The highest inhibitor concentrations tested were 1 mM due to solubility limitations at higher concentration. Dissociation constants average and SEM were calculated from two to eight single point measurements showing between 20–80% inhibition. […]

[5] = target: T2, galectin-1; test: competitive fluorescence polarization assay, galectin-1; type: binding; details: for Kd: fluorescence polarization, Kd and SEM from 3–6 single point measurements, read-out: Dissociation constants, Galectin-1
Protocol: (§2) Affinities of 1c–1z for galectin-1, -3, -4C, -4N, -7, -8C, -8N, -9C, and -9N were measured using an established fluorescence polarization assay[57] with reported probes and conditions.[19] […]
(§3) Fluorescence polarization experiments
(§4) Human galectin-11 and galectin-32 were expressed and purified as earlier described. Fluorescence polarization experiments were performed on a PheraStarFS plate reader with software PHERAstar Mars version 2.10 R3 (BMG, Offenburg, Germany). Specific experimental conditions were a galectin-1 concentration of 0.5 µM together with the fluorescent probe (3,3’-dideoxy-3-[4-(fluorescein-5-yl-carbonylaminomethyl)-1H-1,2,3-triazol-1-yl]-3’-(3,5-di-methoxybenzamido)-1,1’-sulfanediyl-di-β-D-galactopyranoside 1 concentration of 20 nM and a galectin-3 concentration of 0.2 µM together with the fluorescent probe (3,3’-dideoxy-3-[4-(fluorescein-5-yl-carbonylaminomethyl)-1H-1,2,3- […]
as §1

[6] = target: T3, galectin-3; test: competitive fluorescence polarization assay, galectin-3; details: Kd and SEM from 3–6 single point measurements, > values estimated, no apparent binding at highest concentration, read-out: Dissociation constants, Galectin-3
Protocol: as §2, §3, §4, §1

[7] = target: T4, galectin-4N (Homo sapiens, UniProt P56470); test: competitive fluorescence polarization assay, galectin-4N; type: binding; details: Kd and SEM from 3–6 single point measurements, read-out: Dissociation constants, Galectin-4N
T4 construct: called “N” for the N-terminal CRD and “C” for the C-terminal
T4 sequence (P56470 19-150 limits assumed): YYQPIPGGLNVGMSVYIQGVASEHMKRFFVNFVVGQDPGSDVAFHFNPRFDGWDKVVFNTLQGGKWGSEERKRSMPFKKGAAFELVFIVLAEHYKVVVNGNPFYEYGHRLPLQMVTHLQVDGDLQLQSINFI
Protocol: as §2, §1

[8] = Chart 1, known C1-galactosyl inhibitors, read-out: affinity, Galectin-4C
[9] = Table 1 reference compounds, read-out: Dissociation constants, Galectin-1
[10] = Table 1 reference compounds, read-out: Dissociation constants, Galectin-3
[11] = Chart 1, known C1-galactosyl inhibitors, read-out: affinity, Galectin-1
[12] = Chart 1, known C1-galactosyl inhibitors, read-out: affinity, Galectin-3

Kd [4]	Kd [5] [µM]	Kd [6] [µM]	Structure (SMILES)	further results
–	–	–	OC[C@H]1O[C@@H](c2cn(-c3ccccc3F)nn2)[C@H](O)[C@@H](O)[C@H]1O [Compound 1a]	Kd [1, 8]: 780 µM; Kd [2, 9]: 170 µM; Kd [3, 10]: 880 µM
–	–	–	OC[C@H]1O[C@@H](c2cn(-c3ccc(Cl)cc3)nn2)[C@H](O)[C@@H](O)[C@H]1O [Compound 1b]	Kd [1, 8]: 760 µM; Kd [2, 9]: 340 µM; Kd [3, 10]: 1700 µM
1400 µM and 1500 µM	140 ± 25	1400 ± 340	OC[C@H]1O[C@@H](c2cn(-c3ccc(Br)cc3)nn2)[C@H](O)[C@@H](O)[C@H]1O [Compound 1c, 4-(1-Deoxy-β-D-galactopyranosyl)-1-(4-bromophenyl)-1H-1,2,3-triazole]	selectivity for galectin-1 over galectin-3 ([5]; ratio of Kd): tenfold
> 2000 µM	1400 ± 95	1600 ± 30	OC[C@H]1O[C@@H](c2cn(-c3cccc(Br)c3)nn2)[C@H](O)[C@@H](O)[C@H]1O [Compound 1d, 4-(1-Deoxy-β-D-galactopyranosyl)-1-(3-bromophenyl)-1H-1,2,3-triazole]	–
–	460 ± 50	> 1000	OC[C@H]1O[C@@H](c2cn(-c3ccc(I)cc3)nn2)[C@H](O)[C@@H](O)[C@H]1O [Compound 1e]	–
–	1300 ± 220	> 1000	OC[C@H]1O[C@@H](c2cn(-c3cccc(I)c3)nn2)[C@H](O)[C@@H](O)[C@H]1O [Compound 1f]	–
2300 µM and 2600 µM	1300 ± 320	1200 ± 31	OC[C@H]1O[C@@H](c2cn(-c3ccc(C(F)(F)F)cc3)nn2)[C@H](O)[C@@H](O)[C@H]1O [Compound 1g]	–
1500 µM and 2200 µM	1500 ± 62	1300 ± 69	OC[C@H]1O[C@@H](c2cn(-c3cccc(C(F)(F)F)c3)nn2)[C@H](O)[C@@H](O)[C@H]1O [Compound 1h]	–
910 ± 46 µM	400 ± 5	1500 ± 67	O=[N+]([O-])c1ccc(-n2cc([C@@H]3O[C@H](CO)[C@H](O)[C@H](O)[C@H]3O)nn2)cc1 [Compound 1i]	–
> 2000 µM	1800 ± 64	1000 ± 23	O=[N+]([O-])c1cccc(-n2cc([C@@H]3O[C@H](CO)[C@H](O)[C@H](O)[C@H]3O)nn2)c1 [Compound 1j]	–
> 2000 µM	1300 ± 190	1200 ± 90	OC[C@H]1O[C@@H](c2cn(-c3c(F)cccc3F)nn2)[C@H](O)[C@@H](O)[C@H]1O [Compound 1k]	–
> 2000 µM	300 ± 20	1200 ± 110	OC[C@H]1O[C@@H](c2cn(-c3ccc(Cl)cc3F)nn2)[C@H](O)[C@@H](O)[C@H]1O [Compound 1l]	–
1300 ± 260 µM	580 ± 12	870 ± 140	OC[C@H]1O[C@@H](c2cn(-c3cc(Cl)ccc3F)nn2)[C@H](O)[C@@H](O)[C@H]1O [Compound 1m]	–
> 2000 µM	1100 ± 48	> 1000	OC[C@H]1O[C@@H](c2cn(-c3cccc(Cl)c3F)nn2)[C@H](O)[C@@H](O)[C@H]1O [Compound 1n]	–
> 2000 µM	310 ± 29	770 ± 89	OC[C@H]1O[C@@H](c2cn(-c3ccc(Br)cc3F)nn2)[C@H](O)[C@@H](O)[C@H]1O [Compound 1o]	–
2300 µM and 2500 µM	1300 ± 200	660 ± 53	OC[C@H]1O[C@@H](c2cn(-c3ccc(Cl)c(Cl)c3)nn2)[C@H](O)[C@@H](O)[C@H]1O [Compound 1p]	–

Kd [4]	Kd [5] [µM]	Kd [6] [µM]	Structure (SMILES)	further results
> 2000 µM	1200 ± 240	1400 ± 38	Cc1ccc(-n2cc([C@@H]3O[C@H](CO)[C@H](O)[C@H](O)[C@H]3O)nn2)cc1Cl [Compound 1q]	–
> 2000 µM	650 ± 3	490 ± 6	OC[C@H]1O[C@@H](c2cn(-c3ccc(Cl)cn3)nn2)[C@H](O)[C@@H](O)[C@H]1O [Compound 1r]	–
> 2000 µM	980 ± 7	910 ± 92	OC[C@H]1O[C@@H](c2cn(-c3nccs3)nn2)[C@H](O)[C@@H](O)[C@H]1O [Compound 1s]	–
880 ± 82 µM	970 ± 25	2000 ± 270	OC[C@H]1O[C@@H](c2cn(-c3ccc(-c4ccccc4)cc3)nn2)[C@H](O)[C@@H](O)[C@H]1O [Compound 1t]	–
2100 ± 490 µM	2100 ± 73	1400 ± 160	OC[C@H]1O[C@@H](c2cn(-c3ccc4c(c3)CCC4)nn2)[C@H](O)[C@@H](O)[C@H]1O [Compound 1u]	–
2900 µM and 3500 µM	780 ± 43	690 ± 70	CS(=O)(=O)c1ccc(-n2cc([C@@H]3O[C@H](CO)[C@H](O)[C@H](O)[C@H]3O)nn2)cc1 [Compound 1v]	–
> 2000 µM	1400 ± 85	1400 ± 70	CS(=O)(=O)c1cccc(-n2cc([C@@H]3O[C@H](CO)[C@H](O)[C@H](O)[C@H]3O)nn2)c1 [Compound 1w]	–
1900 ± 550 µM	970 ± 65	1200 ± 83	CC(=O)c1ccc(-n2cc([C@@H]3O[C@H](CO)[C@H](O)[C@H](O)[C@H]3O)nn2)cc1 [Compound 1x]	–
2000 µM and 2700 µM	1300 ± 260	1000 ± 200	CC(=O)c1cccc(-n2cc([C@@H]3O[C@H](CO)[C@H](O)[C@H](O)[C@H]3O)nn2)c1 [Compound 1y]	–
2600 µM and 3100 µM	150 ± 17	880 ± 100	OC[C@H]1O[C@@H](c2cn(-c3ccccn3)nn2)[C@H](O)[C@@H](O)[C@H]1O [Compound 1z]	–
–	–	–	OC[C@H]1O[C@@H](c2cnc(-c3cccc4ccccc34)o2)[C@H](O)[C@@H](O)[C@H]1O [Compound 2]	Kd [1, 8]: 550 µM; Kd [2, 11]: 490 µM; Kd ([3]; as printed in the running text, read-out: galectin-3 affinity): 90 µM
–	–	–	OC[C@H]1O[C@@H](Cn2cc(-c3ccc(F)cc3)nn2)[C@H](O)[C@@H](O)[C@H]1O [Compound 3]	Kd [1, 8]: 1200 µM; Kd [2, 11]: 170 µM; Kd [3, 12]: 710 µM
–	–	–	OC[C@H]1O[C@@H](Cn2cc(-c3ccc(C(F)(F)F)cc3)nn2)[C@H](O)[C@@H](O)[C@H]1O [Compound 4]	Kd [1, 8]: > 900 µM; Kd [2, 11]: 240 µM; Kd [3, 12]: 830 µM
18 ± 2 µM	280 ± 39	34 ± 1	OC[C@H]1O[C@@H](c2cn(-c3ccccc3F)nn2)[C@H](O)[C@@H](n2cc(-c3ccccc3)nn2)[C@H]1O [Compound 16a, 1,3-Dideoxy-1-(1-(2-fluorophenyl)-1H-1,2,3-triazol-4-yl)-3-(4-(phenyl)-1H-1,2,3-triazolyl)-β-D-galactopyranosyl]	Kd [7]: 90 ± 17 µM
2.3 ± 0.4 µM	–	–	OC[C@H]1O[C@@H](c2cnc(-c3cccc4ccccc34)o2)[C@H](O)[C@@H](n2cc(-c3ccccc3)nn2)[C@H]1O [Compound 18]	selectivity for galectin-4C over galectin-3 ([4]; ratio of Kd): 4 fold
–	–	–	CO[C@@H]1O[C@H](CO)[C@@H](O[C@@H]2O[C@H](CO)[C@H](O)[C@H](O)[C@H]2O)[C@H](O)[C@H]1O [β-Me Lac, methyl β-lactoside]	Kd ([1]; Table 1 reference saccharides, read-out: Dissociation constants, Galectin-4C): 2900 µM; Kd ([2]; Table 1 reference saccharides, read-out: Dissociation constants, Galectin-1): 190 µM; Kd ([3]; Table 1 reference saccharides, read-out: Dissociation constants, Galectin-3): 220 µM
